Assay results published in PMC4113456, “Atypical Signaling and Functional Desensitization Response of MAS Receptor to Peptide Ligands” (PLoS ONE, 2014).
Positions count from the first letter of the chain named. Marks after values point to notes of the source that are not given here.

Legend:
[1] = target: T1, MAS T270A mutant (Homo sapiens, UniProt P04201, T270A); assay: IP1 assay, T270A MAS mutant stable cell line; type: cell-based
T1 construct: expressed in transfected cells
T1 sequence (P04201 1-325 T270A): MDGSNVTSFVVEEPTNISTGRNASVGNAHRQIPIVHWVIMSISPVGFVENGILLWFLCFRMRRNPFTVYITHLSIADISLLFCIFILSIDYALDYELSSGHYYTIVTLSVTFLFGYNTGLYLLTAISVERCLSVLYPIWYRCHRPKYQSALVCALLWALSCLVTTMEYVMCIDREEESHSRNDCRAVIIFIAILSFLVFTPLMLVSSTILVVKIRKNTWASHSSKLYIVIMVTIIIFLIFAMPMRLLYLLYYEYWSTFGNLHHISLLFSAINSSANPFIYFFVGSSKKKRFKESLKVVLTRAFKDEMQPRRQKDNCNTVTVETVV
Description: The WT MAS expression construct was synthesized with an N-terminal myc-tag (Figure 1) by GenScript (Piscataway, NJ). The myc-tagged WT MAS from this vector was initially sub-cloned into pcDNA3.1 and later sub-cloned into tetracycline/doxycycline inducible vector pcDNA 5/TO (Life Technologies, Grand Island, NY). Four different ligand binding MAS mutants (F112A, I191A, M244A and T270A) were created using site-directed mutagenesis of WT myc-tagged MAS in pcDNA3.1 or pcDNA 5/TO vector background (Agilent Technologies, Santa Clara, CA). WT MAS receptor without an epitope tag was constructed by replacing the 5′ portion of the myc-tagged WT MAS in pcDNA 5/TO by untagged MAS sequence from a plasmid construct provided as a gift from Arena Pharmaceuticals, Inc. (San Diego, CA). The sequences of all WT and mutant MAS genes in plasmid constructs were verified by capillary DNA sequencing at the Genomics Core at Lerner Research Institute (Cleveland, OH).
IP1 levels in the cells were measured using the IP-One Tb kit (Cisbio US, Bedford, MA). For the assay, cells were seeded onto a 384-well low volume white cell culture plate at a density of 25,000 cells/well in 20 µl of induction or complete medium. In the IP1 assays the cell density of 25,000 cells/well was consistently maintained to minimize variability between independent experiments. The cells were maintained in a cell culture incubator for 26–28 h. […] Time-resolved ratiometric fluorescence emission measurements at 665 nm and 620 nm were taken after excitation at 343 nm on FlexStation 3 instrument. […]
For re-stimulation assays, the data is expressed as the percentage of maximum agonist stimulation to allow for ready comparison between individual experiments. For the IP1 assay, a standard curve was generated using the 4-Parameter logistic equation fit of the HTRF readings of IP1 standards using the SoftMax Pro software. […] In the luciferase assay, the luminescence measurements (RLU) are presented as a ratio of firefly to renilla luciferase activity. […]

[2] = target: T2, untagged WT MAS (Homo sapiens, UniProt P04201); assay: Calcium assay, untagged WT MAS inducible HEK293 stable cell line; type: cell-based
T2 construct: expressed in transfected cells
T2 sequence (P04201 1-325): T1 sequence (P04201 1-325 T270A) with A270T
Description: The assay was performed using FLIPR Calcium 5 assay kit (Molecular Devices, Sunnyvale, CA). For calcium measurements, cells at a density of 125,000 cells/well in 100 µl medium were seeded onto a 96-well clear bottom black cell culture plate that was pre-coated with poly-L-lysine. In the calcium assays the cell density of 125,000 cells/well was consistently maintained to minimize variability between independent experiments. The cells were seeded in induction media to induce MAS expression or in complete media for negative controls. The plate was maintained in a cell culture incubator for 26–28 h. The cells were then serum starved for 2 h by replacing the medium with 100 µl of serum free DMEM. In the case of pre-treatment with pan-inhibitor of G protein signaling, BIM-46187, the cells were initially serum starved for 1 h by replacing the medium with 50 µl of serum free DMEM. After 1 h, 50 µl of BIM-46187 was added to the cells to a final concentration of 25 µM and treated for another 1 h. Following serum starvation, 100 µl of calcium sensitive dye along with 2x (2.5 mM final concentration) probenecid (Life Technologies, Grand Island, NY) was added to the cells. During this step, AR-inverse agonist or BIM-46187 was also added at desired concentrations to the calcium dye preparation in case of experiments where cells were pre-treated with these inhibitors. The cells were maintained for one hour in the cell culture incubator. Following this, the 96-well plate containing cells loaded with calcium dye and a U-bottom 96-well plate containing ligands at 5x the desired final concentration in D-PBS (1.47 mM KH2PO4, 138 mM NaCl, 2.67 mM KCl, 8.1 mM Na2HPO4, pH 7.3) were allowed to equilibrate for 15 min on a FlexStation 3 instrument (Molecular Devices, Sunnyvale, CA) at 37°C. The plates were further equilibrated on the instrument for 5 min with the lids removed from the plates. The instrument was programmed in FLEX mode to add ligands (50 µl at 5x concentration) to the cells and to monitor the fluorescence before and after adding the ligands. […]

Compound | EC50, IP1 assay [1] | EC50 ([2]; read-out: EC50, calcium flux) | Fold over WT, IC50 IP1 assay [1] | IC50 [1] | IC50 ([2]; read-out: IC50, calcium flux)
COc1cc([N+](=O)[O-])ccc1S(=O)(=O)N1CC(CN2CCN(c3ccccn3)CC2)C(c2cccc(F)c2)C1 (centres unmarked) [AR-agonist] | cbd | 1200 ± 100 nM |  |  | 
C=CCCN1CCC2(CC1)CN(C(=O)c1c(F)cccc1F)c1ccc(Cl)cc12 [AR-inverse] |  |  | 2.5** | 1700 ± 30 nM | 500 ± 400 nM
